In patent publication US20150290265A1, “COMPOSITION FOR TREATING METABOLIC DISORDERS” (PIRAMAL ENTERPRISES LIMITED, priority 2012, published 2015):

What was measured:
[1] = High fat diet (HFD) induced body weight gain study in mice; assay type: in vivo, C57BL/6J mice; settings: Mean ± S.E.M.
Protocol: Male C57BL/6J mice (in-house; Central Animal Facility, Piramal Healthcare Limited, Goregaon, Mumbai, Maharashtra, India) were acclimatized with HFD (60% Kcal, D12492, Research Diets, USA) for two weeks. […] Orlistat (Biocon, India) was used as the standard drug and was administered orally at a dose of 15 mg/kg body weight, twice daily. A separate group of ten mice was fed a low fat diet (LFD, 10% kcal, D12450B, Research Diet, USA) as a normal control. Vehicle was administered to the HFD and LFD control groups at dose of 10 mL/kg body weight. The treatments were continued for a period of sixty days. Body weight and feed intake were monitored daily. The % change in body weight (% increase in body weight from day 1) and the cumulative feed intake data was calculated. On day sixtyone, blood samples (˜200 μL/mice) were collected in heparinised (50 IU/mL) micro-centrifuge tubes under isoflurane anesthesia. Plasma was separated by centrifugation at 10000 rpm at 4° C. for estimation of various plasma biochemistry parameters. The biochemistry analysis was performed on BS-400 autoanalyzer (Mindray, China). […] All the data was analyzed for statistical significance by one-way ANOVA followed by Dunnet's post-hoc test and values of P<0.05 were considered as significant. […]

SCD-1 enzyme = biological target: T1, SCD-1 enzyme (Rattus norvegicus, UniProt P07308); assay: SCD-1 inhibition assay (rat liver microsomes, 3H2O release); assay type: biochemical; settings: 50 μg/mL
T1 construct: Male Sprague-Dawley rats (150-175 g) were fasted for two days and then fed on low fat diet for three days to induce SCD-1 activity; from tissue; host or cells: liver microsomes of male Sprague-Dawley rats
T1 sequence (P07308 1-358): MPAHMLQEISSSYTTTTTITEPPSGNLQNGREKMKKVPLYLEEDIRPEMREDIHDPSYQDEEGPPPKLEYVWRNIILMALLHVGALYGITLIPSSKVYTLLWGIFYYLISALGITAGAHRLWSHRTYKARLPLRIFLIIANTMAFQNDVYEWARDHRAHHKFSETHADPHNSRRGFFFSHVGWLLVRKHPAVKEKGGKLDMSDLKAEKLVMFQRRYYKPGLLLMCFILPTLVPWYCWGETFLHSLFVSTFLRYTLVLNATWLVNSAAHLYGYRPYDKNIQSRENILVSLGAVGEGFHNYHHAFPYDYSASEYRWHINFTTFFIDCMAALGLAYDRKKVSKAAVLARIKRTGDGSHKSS
Protocol: The assay was carried out according to the method described in reference, European Journal of Pharmacology, 618, 28-36, 2009, the disclosure of which is incorporated by reference for the teaching of the assay.
The SCD-1 enzyme was prepared from rat liver microsomes as described in PCT Publication Application WO2008/074835A1, the disclosure of which is incorporated herein by reference for the teaching of the assay.
Male Sprague-Dawley rats (150-175 g) were fasted for two days and then fed on low fat diet for three days to induce SCD-1 activity. The rats were then sacrificed and their livers were removed and placed on ice. The livers were finely chopped with scissors and then homogenized using a Polytron homogenizer in a homogenization buffer (150 mM KCl, 250 mM sucrose, 50 mM tris-HCl, pH 7.5, 5 mM EDTA, and 1.5 mM reduced glutathione) at 4° C. The homogenate was centrifuged at 1500×g for 20 min at 4° C. […]
The microsomes (62.5 μg) were treated with the test sample for 15 min. […] The filtrate containing ^3H2O was transferred to scintillation vials containing 4 mL of scintillation fluid and the cpm counts were measured using a liquid scintillation counter. The % inhibition was calculated with reference to the vehicle control.
The dose response was determined at concentrations of 25 μg/mL, 50 μg/mL and 100 μg/mL by serially diluting stock solutions of Extract of Example 2.

human DGAT-1 enzyme = biological target: T2, human DGAT-1 enzyme (Homo sapiens, UniProt O75907); assay: hDGAT-1 inhibition assay (microsomes from Sf9 cells, [14C]oleoyl-CoA incorporation); assay type: biochemical; settings: 50 μg/mL
T2 construct: host or cells: Sf9 insect cells (baculovirus, Bac-to-Bac); microsomal fraction
T2 sequence (O75907 1-488): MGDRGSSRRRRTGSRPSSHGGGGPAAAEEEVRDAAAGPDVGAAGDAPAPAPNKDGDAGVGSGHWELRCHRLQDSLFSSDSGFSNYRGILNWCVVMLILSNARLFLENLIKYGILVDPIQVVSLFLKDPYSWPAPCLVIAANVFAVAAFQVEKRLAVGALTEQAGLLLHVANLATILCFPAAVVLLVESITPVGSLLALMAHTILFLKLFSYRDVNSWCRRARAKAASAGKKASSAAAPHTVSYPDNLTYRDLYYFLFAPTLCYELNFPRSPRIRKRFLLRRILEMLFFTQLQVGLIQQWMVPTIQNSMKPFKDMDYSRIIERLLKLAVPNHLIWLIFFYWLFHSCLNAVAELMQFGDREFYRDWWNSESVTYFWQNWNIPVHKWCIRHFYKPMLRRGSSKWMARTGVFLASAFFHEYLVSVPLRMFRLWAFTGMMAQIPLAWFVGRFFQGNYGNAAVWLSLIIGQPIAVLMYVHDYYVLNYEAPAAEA
Protocol: The DGAT-1 assay was designed using human DGAT-1 enzyme over expressed in Sf9 cell-line as described in the reference, European Journal of Pharmacology, 650, 663-672, 2011, the disclosure of which is incorporated by reference for the teaching of the assay.
Enzyme was diluted to a working concentration of 1 mg/mL in hDGAT-1 assay buffer, 2.5 μL of the working enzyme stock was used in hDGAT-1 assay (final concentration 25 μg/mL).
The test samples were prepared as follows. […] The working stock was prepared in hDGAT-1 assay buffer. 10 μL of working stock was added into 100 μL of assay mixture to obtain the final concentration of extracts at 50 μg/mL.
60 μL of substrate mix (as described above) was added to a total assay volume of 100 μL. The reaction was started by adding 2.5 μg hDGAT-1 containing microsomal protein and was incubated at 37° C. for 10 min. The reaction was stopped by adding 300 μL of alkaline ethanol stop solution mix (AESSM). […] 250 μL of the upper heptane was added into 4 mL of scintillation fluid and measured using a liquid scintillation counter (Packard; 1600CA) as disintegration per min (dpm) counts. The percentage inhibition was calculated with respect to the vehicle.

Row | Compound | Body weight (g, day 0) ([1]; day 0 (baseline)) | Body weight (g, day 60) ([1]; day 60, Extract 500 mg/kg orally once daily, Orlistat 15 mg/kg orally twice daily) | activity in the SCD-1 inhibition assay (conclusion) (SCD-1 enzyme) | inhibition at 50 µg/mL (SCD-1 enzyme; Table 3) | activity in the hDGAT-1 inhibition assay (conclusion) (human DGAT-1 enzyme) | inhibition at 50 µg/mL (human DGAT-1 enzyme; Table 1)
1 | CCCCCCCCCCC[C@@H](C[C@@H]1OC(=O)[C@H]1CCCCCC)OC(=O)[C@H](CC(C)C)NC=O [Orlistat] | 26.4 ± 0.4 g | 30.9 ± 0.9 g | – | – | – | –
2 | C[C@@H]1O[C@@H](Oc2cc3c(=O)oc4c(O)c(O)cc5c(=O)oc(c2O)c3c45)[C@H](O)[C@H](O)[C@H]1O [The compound 1, Ellagic acid, 4-O-alpha-L-rhamnopyranoside] | – | – | active | 74.2% | active | 85%
